Patent US3939143A, “1-N-isoserylkanamycins and the production thereof” (Zaidan Hojin Biseibutsu Kagaku Kenkyu Kai, priority 1973, dated 1976)
Values after ≈ are worked out from the molar mass of the structure shown. Where two headings read alike, the source gives them in different places.

Key:
[1] = tested on: Staphylococcus aureus FDA 209P; assay: Minimum inhibitory concentration, serial dilution on nutrient agar; format: cell-based; conditions: FDA209P, read-out: Minimum Inhibitory Concentration
[2] = tested on: Pseudomonas aeruginosa No.12; assay: as above; format: cell-based; conditions: read-out: Minimum Inhibitory Concentration
Bacillus anthracis = assay: microbe, parasite or virus in culture; format: cell-based; conditions: 18 h, read-out: Minimum Inhibitory Concentration
Escherichia coli K-12 = assay: Minimum inhibitory concentration, serial dilution on nutrient agar; format: cell-based; conditions: read-out: Minimum Inhibitory Concentration
[3] = tested on: Escherichia coli JR66/W677; assay: as above; format: cell-based; conditions: JR66/W677, 18 h, read-out: Minimum Inhibitory Concentration
[4] = tested on: Klebsiella pneumoniae 22 No. 3038; assay: as above; format: cell-based; conditions: read-out: Minimum Inhibitory Concentration
[5] = tested on: Escherichia coli K-12 ML 1410; assay: as above; format: cell-based; conditions: read-out: Minimum Inhibitory Concentration
[6] = tested on: Escherichia coli LA290 R55; assay: as above; format: cell-based; conditions: LA290R55, 18 h, read-out: Minimum Inhibitory Concentration
[7] = tested on: Escherichia coli K-12 ML 1629; assay: as above; format: cell-based; conditions: read-out: Minimum Inhibitory Concentration
Proteus vulgaris OX 19 = assay: as above; format: cell-based; conditions: read-out: Minimum Inhibitory Concentration
[8] = tested on: Escherichia coli LA290 R64; assay: as above; format: cell-based; conditions: LA290R64, 18 h, read-out: Minimum Inhibitory Concentration
[9] = tested on: Klebsiella pneumoniae PCI 602; assay: as above; format: cell-based; conditions: read-out: Minimum Inhibitory Concentration
Escherichia coli W677 = assay: as above; format: cell-based; conditions: read-out: Minimum Inhibitory Concentration
[10] = tested on: Staphylococcus aureus Terajima; assay: as above; format: cell-based; conditions: read-out: Minimum Inhibitory Concentration
Escherichia coli NIHJ = assay: as above; format: cell-based; conditions: read-out: Minimum Inhibitory Concentration
[11] = tested on: Escherichia coli LA290 R56; assay: as above; format: cell-based; conditions: LA290R56, 18 h, read-out: Minimum Inhibitory Concentration
[12] = tested on: Pseudomonas aeruginosa TI-13; assay: as above; format: cell-based; conditions: TI13, 37°C, 18 hours
Method: (§1) The minimum inhibitory concentrations (mcg/ml) of 1-N-DL-isoserylkanamycin,1-N-DL-isoserylkanamycin B and 1-N-DL-isoseryl-3',4'-dideoxykanamycin B against various microorganisms were determined according to the serial dilution method using nutrient agar medium at 37°C, the estimation being effected after 18 hours incubation. For comparison purposes, the minimum inhibitory concentrations of kanamycin, kanamycin B and 3',4'-dideoxykanamycin B were also determined in the same manner and under the same conditions as mentioned above.
(§2) The antibacterial spectra of 1-N-DL-isoseryl-kanamycin (abbreviated as 1-IS-KM), 1-N-DL-isoseryl-kanamycin B (abbreviated as 1-IS-KMB) and 1-N-DL-isoseryl-3',4'-dideoxykanamycin B (abbreviated as 1-IS-DKB) are shown in the following table together with those of kanamycin (abbreviatedas KM), kanamycin B (abbreviated as KMB) and 3',4'-dideoxykanamycin B (abbreviated as DKB).

[13] = tested on: Pseudomonas aeruginosa A3; assay: as above; format: cell-based; conditions: 37°C, 18 hours
Method: as §1, §2

[14] = tested on: Shigella flexneri 4b JS 11811; assay: as above; format: cell-based; conditions: 4BJS11811, 37°C, 18 hours
Method: as §1, §2

Shigella sonnei JS 11746 = assay: as above; format: cell-based; conditions: JS11746, 37°C, 18 hours
Method: as §1, §2

[15] = tested on: Escherichia coli K-12 ML 1630; assay: as above; format: cell-based; conditions: K12ML1630, 37°C, 18 hours
Method: as §1, §2

[16] = tested on: Shigella dysenteriae JS 11910; assay: as above; format: cell-based; conditions: JS11910, 18 h, read-out: Minimum Inhibitory Concentration
Sarcina lutea PCI 1001 = assay: as above; format: cell-based; conditions: Micrococcus luteus, read-out: Minimum Inhibitory Concentration
[17] = tested on: Bacillus subtilis PCI 219; assay: as above; format: cell-based; conditions: read-out: Minimum Inhibitory Concentration
[18] = tested on: Staphylococcus aureus Smith; assay: as above; format: cell-based; conditions: read-out: Minimum Inhibitory Concentration
[19] = tested on: Bacillus cereus ATCC 10702; assay: as above; format: cell-based; conditions: read-out: Minimum Inhibitory Concentration
Salmonella typhosa T-63 = assay: as above; format: cell-based; conditions: Salmonella enterica, 18 h, read-out: Minimum Inhibitory Concentration
[20] = tested on: Pseudomonas aeruginosa 99; assay: as above; format: cell-based; conditions: Pseudomonas aeruginosa, 99, 18 h, read-out: Minimum Inhibitory Concentration
[21] = tested on: Salmonella enteritidis 1891; assay: as above; format: cell-based; conditions: Salmonella enterica, read-out: Minimum Inhibitory Concentration
[22] = tested on: Corynebacterium bovis 1810; assay: as above; format: cell-based; conditions: read-out: Minimum Inhibitory Concentration
[23] = tested on: Bacillus subtilis NRRL B-558; assay: as above; format: cell-based; conditions: read-out: Minimum Inhibitory Concentration
[24] = tested on: Escherichia coli K-12 ML 1410 R81; assay: as above; format: cell-based; conditions: 18 h, read-out: Minimum Inhibitory Concentration
[25] = tested on: Mycobacterium smegmatis ATCC 607; assay: as above; format: cell-based; conditions: Mycolicibacterium smegmatis, read-out: Minimum Inhibitory Concentration
[26] = tested on: Pseudomonas aeruginosa GN315; assay: as above; format: cell-based; conditions: read-out: Minimum Inhibitory Concentration
[27] = acute toxicity upon intravenous injection in mice; format: in vivo; conditions: mouse, in vivo; intravenous injection, mice
[28] = tested on: gram-negative and gram-positive bacteria; assay: antibacterial activity, in words; format: cell-based; conditions: gram-negative and gram-positive bacteria sensitive to kanamycins
Method: as §1, §2

[29] = tested on: drug-resistant strains of Escherichia coli and Pseudomonas aeruginosa; assay: antibacterial activity against drug-resistant strains, in words; format: cell-based

Work on `NC[C@H]1O[C@H](O[C@H]2[C@H](O)[C@@H](O[C@H]3O[C@H](CO)[C@@H](O)[C@H](N)[C@H]3O)[C@H](N)C[C@@H]2N)[C@H](N)[C@@H](O)[C@@H]1O` [KMB, kanamycin B, reference compound] yielded an MIC ([1]; 18 h) of 0.39 µg/mL (≈ 0.807 µM), an MIC ([2]; NO.12, 18 h) of 12.5 µg/mL (≈ 25.9 µM) and an MIC (Bacillus anthracis) of less than 0.2 µg/mL. It also gave an MIC (Escherichia coli K-12; K12, 18 h) of 0.78 µg/mL (≈ 1.61 µM), an MIC [3] greater than 100 µg/mL and an MIC ([4]; 22NO.3038, 18 h) greater than 100 µg/mL. It also gave an MIC ([5]; K12ML1410, 18 h) of 0.78 µg/mL (≈ 1.61 µM), an MIC [6] of 12.5 µg/mL (≈ 25.9 µM) and an MIC ([7]; K12ML1629, 18 h) greater than 100 µg/mL. The MIC (Proteus vulgaris OX 19; OX19, 18 h) was 0.78 µg/mL (≈ 1.61 µM), the MIC [8] was 3.13 µg/mL (≈ 6.47 µM) and the MIC ([9]; PCI602, 18 h) was 0.78 µg/mL (≈ 1.61 µM). The MIC (Escherichia coli W677; W677, 18 h) was 0.39 µg/mL (≈ 0.807 µM), the MIC ([10]; 18 h) was less than 0.2 µg/mL and the MIC (Escherichia coli NIHJ; 18 h) was 0.78 µg/mL (≈ 1.61 µM). For the same compound, the MIC [11] was 3.13 µg/mL (≈ 6.47 µM), the MIC [12] was 100 µg/mL (≈ 207 µM) and the MIC [13] was 50 µg/mL (≈ 103 µM). It also gave an MIC [14] of 3.13 µg/mL (≈ 6.47 µM), an MIC (Shigella sonnei JS 11746) of 1.56 µg/mL (≈ 3.23 µM) and an MIC [15] greater than 100 µg/mL. The MIC [16] was 3.13 µg/mL (≈ 6.47 µM), the MIC (Sarcina lutea PCI 1001; PCI1001, 18 h) was 1.56 µg/mL (≈ 3.23 µM) and the MIC ([17]; PCI219, 18 h) was less than 0.2 µg/mL. For the same compound, the MIC ([18]; 18 h) was less than 0.2 µg/mL, the MIC ([19]; ATCC10702, 18 h) was 0.78 µg/mL (≈ 1.61 µM) and the MIC (Salmonella typhosa T-63) was 0.2 µg/mL (≈ 0.414 µM). For the same compound, the MIC [20] was greater than 100 µg/mL, the MIC ([21]; 18 h) was 1.56 µg/mL (≈ 3.23 µM) and the MIC ([22]; Corynebacterium bovis, 1810, 18 h) was 1.56 µg/mL (≈ 3.23 µM). The MIC ([23]; NRRLB558, 18 h) was less than 0.2 µg/mL, the MIC [24] was greater than 100 µg/mL and the MIC ([25]; ATCC607, 18 h) was 0.78 µg/mL (≈ 1.61 µM). The MIC ([26]; GN315, 18 h) was greater than 100 µg/mL.

`NCC(O)C(=O)N[C@@H]1C[C@H](N)[C@@H](O[C@H]2O[C@H](CN)CC[C@H]2N)[C@H](O)[C@H]1O[C@H]1O[C@H](CO)[C@@H](O)[C@H](N)[C@H]1O` (mixture of isomers) [1-IS-DKB, 1-N-DL-isoseryl-3',4'-dideoxykanamycin B] gave an MIC ([1]; 37°C, 18 hours) of 0.78 µg/mL, an MIC ([2]; NO.12, 37°C, 18 hours) of 1.56 µg/mL and an MIC (Bacillus anthracis) of less than 0.2 µg/mL. For the same compound, the MIC (Escherichia coli K-12; K12, 37°C, 18 hours) was 1.56 µg/mL, the MIC [3] was 3.13 µg/mL and the MIC ([4]; 22NO.3038, 37°C, 18 hours) was 1.56 µg/mL. For the same compound, the MIC ([5]; K12ML1410, 37°C, 18 hours) was 1.56 µg/mL, the MIC [6] was 1.56 µg/mL and the MIC ([7]; K12ML1629, 37°C, 18 hours) was 1.56 µg/mL. For the same compound, the LD50 [27] was greater than 100 mg/kg, the MIC (Proteus vulgaris OX 19; OX19, 37°C, 18 hours) was 0.2 µg/mL and the MIC [8] was 0.39 µg/mL. It also gave an MIC ([9]; PCI602, 37°C, 18 hours) of 0.39 µg/mL, an MIC (Escherichia coli W677; W677, 37°C, 18 hours) of 0.78 µg/mL and an MIC ([10]; 37°C, 18 hours) of less than 0.2 µg/mL. It also gave an MIC (Escherichia coli NIHJ; 37°C, 18 hours) of 1.56 µg/mL, an MIC [11] of 0.39 µg/mL and an MIC [12] of 3.13 µg/mL. For the same compound, the MIC [13] was 3.13 µg/mL, the MIC [14] was 3.13 µg/mL and the MIC (Shigella sonnei JS 11746) was 3.13 µg/mL. The MIC [15] was 1.56 µg/mL, the MIC [16] was 3.13 µg/mL and the antibacterial activity [28] was “high antibacterial activity”. The MIC (Sarcina lutea PCI 1001; PCI1001, 37°C, 18 hours) was 1.56 µg/mL, the antibacterial activity [29] was “high antibacterial activity” and the MIC ([17]; PCI219, 37°C, 18 hours) was less than 0.2 µg/mL. It also gave an MIC ([18]; 37°C, 18 hours) of less than 0.2 µg/mL, an MIC ([19]; ATCC10702, 37°C, 18 hours) of 1.56 µg/mL and an MIC (Salmonella typhosa T-63) of 0.78 µg/mL. The MIC [20] was 3.13 µg/mL, the MIC ([21]; 37°C, 18 hours) was 0.39 µg/mL and the MIC ([22]; Corynebacterium bovis, 1810, 37°C, 18 hours) was 0.78 µg/mL. It also gave an MIC ([23]; NRRLB558, 37°C, 18 hours) of less than 0.2 µg/mL, an MIC ([25]; ATCC607, 37°C, 18 hours) of less than 0.2 µg/mL and an MIC ([26]; GN315, 37°C, 18 hours) of 12.5 µg/mL.
